# Test results from ChEMBL document CHEMBL2040772, “Tri-substituted acylhydrazines as tertiary amide bioisosteres: HCV NS5B polymerase inhibitors” (Bioorg Med Chem Lett, 2012).
# Key:
# [1] = Lipophilicity, log D of the compound; assay type: physicochemical; conditions: octanol/water
# Hepatitis C virus [2] = assay: Antiviral activity against HCV1a infected in human Huh-7 cells after 3 days by renilla luciferase activity based replicon assay; assay type: functional, organism-based, Hepacivirus hominis; conditions: subtype 1a, Huh-7, 72 h
# Hepatitis C virus [3] = assay: Antiviral activity against HCV1b infected in human Huh-7 cells after 3 days by renilla luciferase activity based replicon assay; assay type: functional, organism-based, Hepacivirus hominis; conditions: genotype 1b, Huh-7, 72 h
# Hepatitis C virus [4] = assay: Inhibition of HCV1b NS5B delta21 polymerase assessed as incorporation of nucleotides into sshRNA template using [33P]-CTP after 15 mins by scintillation counting; parameters: species or system Hepatitis C virus subtype 1b; conditions: 0.25 h
# [5] = Cytotoxicity against human HuH7 cells after 3 days by measuring conversion of nonfluorescent calcein-AM into fluorescent calcein; assay type: cell-based, Huh-7
# [6] = Selectivity index, ratio of CC50 for human HuH7 cells to EC50 for HCV1b infected in human Huh-7 cells
# Hepatitis C virus [7] = assay: Binding affinity to HCV1b C-terminally truncated NS5B Cdelta21 RNA dependent RNA polymerase expressed in Escherichia coli by surface plasmon resonance assay; parameters: species or system Hepatitis C virus subtype 1b
EC50 (Hepatitis C virus [2]) [nM],EC50 (Hepatitis C virus [3]) [nM],IC50 (Hepatitis C virus [4]) [nM],Structure (SMILES),logD [1],CC50 at 72 h [5] [nM],Ratio CC50/EC50 [6],Kd (Hepatitis C virus [7]) [nM]
478,89,88,CN(C)N(c1cc(C#CC(C)(C)C)sc1C(=O)O)C(=O)[C@H]1CC[C@H](C)CC1,2.1,> 44000,>400,–
–,32,52,CN(CCO)N(c1cc(C#CC(C)(C)C)sc1C(=O)O)C(=O)[C@H]1CC[C@H](C)CC1,–,> 44000,–,10
–,34,307,CN([C@H]1CC[C@H](O)CC1)N(c1cc(C#CC(C)(C)C)sc1C(=O)O)C(=O)[C@H]1CC[C@H](C)CC1,–,> 44000,–,8
–,47,509,CN(CC1CCOCC1)N(c1cc(C#CC(C)(C)C)sc1C(=O)O)C(=O)[C@H]1CC[C@H](C)CC1,–,> 44000,–,10
–,60,138,CN(C1CCNCC1)N(c1cc(C#CC(C)(C)C)sc1C(=O)O)C(=O)[C@H]1CC[C@H](C)CC1,–,> 44000,–,4
25,7,63,CN1CCC(N(C)N(c2cc(C#CC(C)(C)C)sc2C(=O)O)C(=O)[C@H]2CC[C@H](C)CC2)CC1,–,> 44000,–,4
–,3900,346,CN(c1ccncc1)N(c1cc(C#CC(C)(C)C)sc1C(=O)O)C(=O)[C@H]1CC[C@H](C)CC1,–,36000,–,30

Structure (SMILES),EC50 (Hepatitis C virus [2]) [nM],EC50 (Hepatitis C virus [3]) [nM],IC50 (Hepatitis C virus [4]) [nM],logD [1],CC50 at 72 h [5] [nM],Ratio CC50/EC50 [6],Kd (Hepatitis C virus [7]) [nM]
CC(C)N(c1cc(C#CC(C)(C)C)sc1C(=O)O)C(=O)[C@H]1CC[C@H](C)CC1,90,26,86,2,> 44000,–,–
